Assay results published in paper PMC8412142 (Journal of medicinal chemistry, 2021).

Assays:
[1] = Human liver microsome intrinsic clearance; conditions: human liver microsomes
MRC5 cells = assay: MRC5 cell toxicity; type: cell-based; conditions: in words
Mouse plasma stability = type: in vitro ADME; conditions: in words
[2] = In vivo pharmacokinetics of 29d, 10 mg/kg ip; design: species or system BALB/c mice
Caco-2 = Caco-2 permeability and efflux assay; type: in vitro ADME

| Compound | HLM Clint [1] [μg/min/mg protein] | toxicity in mammalian cells (MRC5 cells) | further results |
| --- | --- | --- | --- |
| 5-(1-methyl-1H-pyrazol-4-yl)-3-(4-(trifluoromethyl)phenyl)-1H-pyrrolo[2,3-b]pyridine [13i] | 66 | – | – |
| N#Cc1cccc(-c2c[nH]c3ncc(-c4cnn(C5CCNCC5)c4)cc23)c1 [29d] | – | non-toxic in MRC5 cells | stability in mouse plasma (Mouse plasma stability): stable in mouse plasma; brain penetration [2]: not appreciably brain-penetrant; Mean brain concentration ([2]; sparse sampling, 0.5 h, LLOQ = 9.77 ng/mL): <LLOQ; Caco-2 efflux / transporter substrate (Caco-2): likely a substrate for P-gp; Caco-2 permeability (Caco-2): low permeability |
| Cn1cc(-c2cnc3[nH]cc(-c4ccc(O)cc4)c3c2)cn1 [13u, 4-(5-(1-Methyl-1H-pyrazol-4-yl)-1H-pyrrolo[2,3-b]pyridin-3-yl)phenol] | – | showed signs of toxicity in mammalian cells | – |
| 3-(5-(Piperidin-1-yl)-1H-pyrrolo[2,3-b]pyridin-3-yl)benzonitrile [24c] | 44 | – | – |
| Cn1cc(-c2cnc3[nH]cc(-c4cccc([N+](=O)[O-])c4)c3c2)cn1 [13t, 5-(1-Methyl-1H-pyrazol-4-yl)-3-(3-nitrophenyl)-1H-pyrrolo[2,3-b]pyridine] | – | showed signs of toxicity in mammalian cells | – |
